Key:
ASN339Pt iso 1 [1] = molecular target: T1, ASN339Pt iso 1 (Paenibacillus thiaminolyticus, UniProt A0AAP9J308); test: ammonia release, Nessler's reagent, […] nm; modified substrate inhibition model (Eq. […], n = […]); type: biochemical; settings: 100 mM Tris pH 9.0, 37 °C, 10 min (standard assay); L-asparagine 1.9-145 mmol L^-1; fit with substrate inhibition; read-out: Results (according to Eq. (2))
T1 construct: gene M5W83_23570; motifs RSSSKPVQAL and NCSGKHLGV; not isoenzyme 2 WP_087440700.1

ASN339Pt iso 1 [2] = molecular target: T1, ASN339Pt iso 1; test: as above; type: biochemical; settings: 100 mM Tris pH 9.0, 37 °C, 10 min (standard assay); L-asparagine 1.9-145 mmol L^-1; fit with substrate inhibition; substrate inhibition constant, two additional substrate molecules (n = 2), active sit
[3] = molecular target: L-asparaginase from Paenibacillus thiaminolyticus (isoenzyme 1) (Paenibacillus thiaminolyticus); test: SEC; HiPrep 16/60 Sephacryl S-100 HR, flow rate 0.5 mL/min, 50 mM phosphate (K+) buffer pH 8.0; standards lysozyme (14 kDa), amylase (55 kDa), aldolase (160 kDa)

T1 sequence (A0AAP9J308 entry or part of it): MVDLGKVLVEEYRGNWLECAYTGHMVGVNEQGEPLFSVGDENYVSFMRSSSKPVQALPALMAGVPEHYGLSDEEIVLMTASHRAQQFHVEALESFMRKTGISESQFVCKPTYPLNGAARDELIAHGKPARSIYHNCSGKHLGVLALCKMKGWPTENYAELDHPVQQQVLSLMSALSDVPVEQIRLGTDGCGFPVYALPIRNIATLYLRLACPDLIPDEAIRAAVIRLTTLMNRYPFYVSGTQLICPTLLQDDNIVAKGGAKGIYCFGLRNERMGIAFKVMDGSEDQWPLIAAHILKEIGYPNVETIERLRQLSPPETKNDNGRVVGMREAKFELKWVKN

| Km (ASN339Pt iso 1 [1]) [mM] | Results (according to Eq. (2)) (ASN339Pt iso 1 [2]) [mmol/L] | stoichiometry N [3] | Compound |
| --- | --- | --- | --- |
| 26 ± 8 | 32 ± 5 | – | NC(=O)C[C@H](N)C(=O)O [L-asparagine] |
| – | – | 2 | L-asparaginase from Paenibacillus thiaminolyticus (isoenzyme 1) |

From article PMC13541837, “High-yield production and functional analysis of novel rhizobial-type glutaminase-free L-asparaginase from Paenibacillus thiaminolyticus” (Folia Microbiologica, 2025)
